21 compounds from patent US12065436B2, “Cardiac sarcomere inhibitors” (Cytokinetics, Inc., priority 2018, dated 2024) can be followed below.

This assay addresses bovine cardiac myofibrils (full-length cardiac myosin ATPase in the native sarcomere) (Bos taurus (Bovine), UniProt Q9BE39). Kind of assay: Skinned bovine cardiac myofibril ATPase assay (PK/LDH-coupled). It is filed as biochemical. As to conditions: Ca2+ activating to 75% of maximal rate; for CDMF75 IC15: concentration giving 15% inhibition; for IC50: read-out: CDMF75 IC50. Summed up:
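Inhibition of steady-state ATPase read at 340 nm through a PK/LDH-coupled NADH system (0.5 mM NADH, 1.5 mM PEP). Detergent-skinned bovine cardiac myofibrils, 1 mg/mL, were tested at pH 6.8 in PIPES/MgCl2 with 50 μM ATP and calcium adjusted to give pCa50 or pCa75 activation.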

Sequence of bovine cardiac myofibrils (full-length cardiac myosin ATPase in the native sarcomere) (Q9BE39 whole entry): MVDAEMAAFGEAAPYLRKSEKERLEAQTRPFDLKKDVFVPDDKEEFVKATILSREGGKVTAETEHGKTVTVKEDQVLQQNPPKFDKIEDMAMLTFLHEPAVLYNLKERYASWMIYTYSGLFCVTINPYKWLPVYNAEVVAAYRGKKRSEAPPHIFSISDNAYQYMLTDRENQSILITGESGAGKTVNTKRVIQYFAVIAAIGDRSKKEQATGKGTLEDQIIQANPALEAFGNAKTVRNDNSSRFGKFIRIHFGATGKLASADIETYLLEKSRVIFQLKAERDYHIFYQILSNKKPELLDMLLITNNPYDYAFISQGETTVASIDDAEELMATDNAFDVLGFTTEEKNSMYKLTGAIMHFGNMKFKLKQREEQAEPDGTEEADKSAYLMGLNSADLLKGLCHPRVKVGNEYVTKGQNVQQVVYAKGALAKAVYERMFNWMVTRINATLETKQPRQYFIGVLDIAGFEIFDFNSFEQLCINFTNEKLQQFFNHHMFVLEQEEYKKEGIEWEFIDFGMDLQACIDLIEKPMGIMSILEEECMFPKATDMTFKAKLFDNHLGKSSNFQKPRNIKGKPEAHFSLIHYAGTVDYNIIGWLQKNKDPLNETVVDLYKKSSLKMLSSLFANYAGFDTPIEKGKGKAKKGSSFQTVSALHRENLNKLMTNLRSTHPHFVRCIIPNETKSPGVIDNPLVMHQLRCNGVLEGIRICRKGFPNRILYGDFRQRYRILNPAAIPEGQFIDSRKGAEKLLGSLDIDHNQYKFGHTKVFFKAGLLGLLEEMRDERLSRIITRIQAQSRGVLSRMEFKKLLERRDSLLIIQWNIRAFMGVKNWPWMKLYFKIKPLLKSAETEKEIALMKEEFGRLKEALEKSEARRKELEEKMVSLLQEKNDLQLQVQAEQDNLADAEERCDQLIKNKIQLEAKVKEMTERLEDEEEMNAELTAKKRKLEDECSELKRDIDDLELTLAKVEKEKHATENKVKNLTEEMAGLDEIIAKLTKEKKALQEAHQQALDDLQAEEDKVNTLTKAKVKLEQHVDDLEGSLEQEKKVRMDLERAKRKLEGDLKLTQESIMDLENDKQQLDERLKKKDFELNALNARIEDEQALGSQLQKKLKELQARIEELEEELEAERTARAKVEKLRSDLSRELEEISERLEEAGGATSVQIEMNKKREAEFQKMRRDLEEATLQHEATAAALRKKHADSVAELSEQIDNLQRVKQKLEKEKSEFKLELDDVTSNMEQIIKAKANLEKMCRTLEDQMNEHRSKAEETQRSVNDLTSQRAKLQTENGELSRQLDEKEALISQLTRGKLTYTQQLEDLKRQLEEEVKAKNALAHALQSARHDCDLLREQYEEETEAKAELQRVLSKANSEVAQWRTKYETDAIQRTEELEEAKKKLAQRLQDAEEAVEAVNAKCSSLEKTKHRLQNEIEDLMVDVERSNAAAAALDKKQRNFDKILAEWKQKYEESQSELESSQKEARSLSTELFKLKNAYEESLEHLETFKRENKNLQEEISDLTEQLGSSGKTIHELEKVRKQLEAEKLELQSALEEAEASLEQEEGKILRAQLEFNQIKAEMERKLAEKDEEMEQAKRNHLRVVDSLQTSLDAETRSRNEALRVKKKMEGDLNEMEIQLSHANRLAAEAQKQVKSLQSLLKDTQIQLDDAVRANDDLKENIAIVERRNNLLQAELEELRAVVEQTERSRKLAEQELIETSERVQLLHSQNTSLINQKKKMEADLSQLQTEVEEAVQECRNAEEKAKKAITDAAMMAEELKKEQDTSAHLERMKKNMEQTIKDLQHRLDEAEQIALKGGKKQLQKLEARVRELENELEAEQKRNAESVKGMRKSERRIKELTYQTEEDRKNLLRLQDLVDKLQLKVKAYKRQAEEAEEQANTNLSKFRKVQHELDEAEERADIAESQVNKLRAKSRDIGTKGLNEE
Sequence of bovine cardiac myofibrils (full-length cardiac myosin ATPase in the native sarcomere) (P85100 whole entry partner): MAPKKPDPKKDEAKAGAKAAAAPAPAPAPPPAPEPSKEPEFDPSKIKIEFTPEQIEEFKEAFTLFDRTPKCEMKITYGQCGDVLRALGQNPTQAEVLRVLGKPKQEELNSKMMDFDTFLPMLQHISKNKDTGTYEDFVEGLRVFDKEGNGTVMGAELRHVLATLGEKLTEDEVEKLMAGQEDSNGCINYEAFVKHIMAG
Sequence of bovine cardiac myofibrils (full-length cardiac myosin ATPase in the native sarcomere) (Q3SZE5 whole entry partner): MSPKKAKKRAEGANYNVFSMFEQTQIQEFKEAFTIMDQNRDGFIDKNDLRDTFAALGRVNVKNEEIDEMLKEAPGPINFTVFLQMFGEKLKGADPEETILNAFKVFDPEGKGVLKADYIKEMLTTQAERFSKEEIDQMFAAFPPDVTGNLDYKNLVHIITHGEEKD

On to `O=C1C[C@@H](C(=O)N[C@@H]2CCc3cc(-c4noc(C5CC5)n4)ccc32)N1` [Compound 316, (S)-N-((R)-5-(5-cyclopropyl-1,2,4-oxadiazol-3-yl)-2,3-dihydro-1H-inden-1-yl)-4-oxoazetidine-2-carboxamide], for which the “CDMF75 IC15” value is 15600 nM and the IC50 (as a rule, the midpoint of a concentration-inhibition curve) is greater than 39200 nM.

In the case of `CCc1nc(-c2ccc3c(c2)CC[C@H]3NC(=O)OCC2COC2)no1` [Compound 358, oxetan-3-ylmethyl (R)-(5-(5-ethyl-1,2,4-oxadiazol-3-yl)-2,3-dihydro-1H-inden-1-yl)carbamate], the “CDMF75 IC15” value was found to be 600 nM and the IC50 came out at 2200 nM.

Regarding `CCc1nc(-c2cc(F)c3c(c2)CC[C@H]3NC(=O)c2cnn(C)c2)no1` [Compound 554, (R)-N-(5-(5-ethyl-1,2,4-oxadiazol-3-yl)-7-fluoro-2,3-dihydro-1H-inden-1-yl)-1-methyl-1H-pyrazole-4-carboxamide], the “CDMF75 IC15” value was determined as 400 nM and the IC50 is 1500 nM.

On to `CCc1nc(-c2ccc3c(c2)CC[C@H]3NC(=O)c2cnn(CCOC(C)=O)c2)no1` [Compound 494, (R)-2-(4-((5-(5-ethyl-1,2,4-oxadiazol-3-yl)-2,3-dihydro-1H-inden-1-yl)carbamoyl)-1H-pyrazol-1-yl)ethyl acetate], for which the “CDMF75 IC15” value worked out at 2400 nM and the concentration for half-maximal inhibition (IC50) is 10000 nM.

Consider `CCc1nc(-c2ccc3c(c2)CC[C@H]3NC(=O)c2csc(C)n2)no1` [Compound 590, (R)-N-(5-(5-ethyl-1,2,4-oxadiazol-3-yl)-2,3-dihydro-1H-inden-1-yl)-2-methylthiazole-4-carboxamide], for which the “CDMF75 IC15” value came to 1400 nM and the IC50 came out at 6800 nM.

`COCc1nc(-c2ccc3c(c2)CC[C@H]3NC(=O)c2cnn(CCO)c2)no1` [Compound 523, (R)-1-(2-hydroxyethyl)-N-(5-(5-(methoxymethyl)-1,2,4-oxadiazol-3-yl)-2,3-dihydro-1H-inden-1-yl)-1H-pyrazole-4-carboxamide]: the “CDMF75 IC15” value amounted to 2900 nM and the IC50 amounted to 13300 nM.

Regarding `O=C(N[C@@H]1CCc2cc(-c3noc(C(F)F)n3)ccc21)OC1CCC1` [Compound 281, cyclobutyl (R)-(5-(5-(difluoromethyl)-1,2,4-oxadiazol-3-yl)-2,3-dihydro-1H-inden-1-yl)carbamate], the “CDMF75 IC15” value was found to be 900 nM and the IC50 is greater than 39200 nM.

With `CCc1nc(-c2ccc3c(c2)CC[C@H]3NC(=O)OCC2CN(C(C)=O)C2)no1` [Compound 360, (1-acetylazetidin-3-yl)methyl (R)-(5-(5-ethyl-1,2,4-oxadiazol-3-yl)-2,3-dihydro-1H-inden-1-yl)carbamate], the “CDMF75 IC15” value was 21600 nM and the IC50 was greater than 39200 nM.

As for `COCc1nc(-c2ccc3c(c2)CC[C@H]3NC(=O)c2cc(OC)no2)no1` [Compound 693, (R)-3-methoxy-N-(5-(5-(methoxymethyl)-1,2,4-oxadiazol-3-yl)-2,3-dihydro-1H-inden-1-yl)isoxazole-5-carboxamide], the “CDMF75 IC15” value turned out to be 900 nM and the IC50 is 3700 nM.

Regarding `O=C(N[C@@H]1COc2cc(-c3noc(C(F)F)n3)ccc21)c1ccnc(CO)c1` [Compound 710, (S)-N-(6-(5-(difluoromethyl)-1,2,4-oxadiazol-3-yl)-2,3-dihydrobenzofuran-3-yl)-2-(hydroxymethyl)isonicotinamide], the “CDMF75 IC15” value came to 400 nM and the IC50 was 1900 nM.

With `CCc1cc(-c2ccc3c(c2)OC[C@H]3NC(=O)c2ocnc2C)no1` [Compound 424, (S)-N-(6-(5-ethylisoxazol-3-yl)-2,3-dihydrobenzofuran-3-yl)-4-methyloxazole-5-carboxamide], the “CDMF75 IC15” value worked out at 200 nM and the IC50 worked out at 600 nM.

Turning to `Cc1nc(-c2ccc3c(c2)OC[C@H]3NC(=O)c2cccc(CO)c2)no1` [Compound 717, (S)-3-(hydroxymethyl)-N-(6-(5-methyl-1,2,4-oxadiazol-3-yl)-2,3-dihydrobenzofuran-3-yl)benzamide], the “CDMF75 IC15” value was 400 nM and the IC50 amounted to 1800 nM.

Take `COCc1nc(-c2ccc3c(c2)CC[C@H]3NC(=O)c2cccc(CO)c2)no1` [Compound 669, (R)-3-(hydroxymethyl)-N-(5-(5-(methoxymethyl)-1,2,4-oxadiazol-3-yl)-2,3-dihydro-1H-inden-1-yl)benzamide]: the “CDMF75 IC15” value is 500 nM and the IC50 stood at 2300 nM.

As for `Cc1cc(C(=O)N[C@@H]2CCc3cc(-c4noc(C(F)F)n4)ccc32)ccn1` [Compound 32, (R)-N-(5-(5-(difluoromethyl)-1,2,4-oxadiazol-3-yl)-2,3-dihydro-1H-inden-1-yl)-2-methylisonicotinamide], the “CDMF75 IC15” value was determined as 600 nM and the IC50 stood at 2300 nM.

Turning to `CCc1nc(-c2ccc3c(c2)CC[C@H]3NC(=O)c2ncc(C)o2)no1` [Compound 636, (R)-N-(5-(5-ethyl-1,2,4-oxadiazol-3-yl)-2,3-dihydro-1H-inden-1-yl)-5-methyloxazole-2-carboxamide], the “CDMF75 IC15” value came to 600 nM and the IC50 came out at 2200 nM.

For `CCc1nc(-c2ccc3c(c2)CC[C@H]3NC(=O)c2cc(C)ncc2F)no1` [Compound 556, (R)-N-(5-(5-ethyl-1,2,4-oxadiazol-3-yl)-2,3-dihydro-1H-inden-1-yl)-5-fluoro-2-methylisonicotinamide], the “CDMF75 IC15” value is 1400 nM and the IC50 came out at 7600 nM.

As to `CCc1nc(-c2ccc3c(c2)OC[C@H]3NC(=O)N2CC[C@H](F)C2)no1` [Compound 742, (S)-N-((S)-6-(5-ethyl-1,2,4-oxadiazol-3-yl)-2,3-dihydrobenzofuran-3-yl)-3-fluoropyrrolidine-1-carboxamide], the “CDMF75 IC15” value stood at 3400 nM and the IC50 was found to be 16600 nM.

Take `Cn1cc(C(=O)NC2CCc3cc(-c4noc(C(F)F)n4)ccc32)c(C(F)(F)F)n1` (stereo not drawn) [Compound 40, N-(5-(5-(difluoromethyl)-1,2,4-oxadiazol-3-yl)-2,3-dihydro-1H-inden-1-yl)-1-methyl-3-(trifluoromethyl)-1H-pyrazole-4-carboxamide]: the “CDMF75 IC15” value came to 3900 nM and the IC50 is 16200 nM.

As to `Cc1cc(C(=O)N[C@@H]2CCc3cc(-c4cc(C(F)F)no4)ccc32)ccn1` [Compound 171, (R)-N-(5-(3-(difluoromethyl)isoxazol-5-yl)-2,3-dihydro-1H-inden-1-yl)-2-methylisonicotinamide], the “CDMF75 IC15” value turned out to be 1700 nM and the IC50 amounted to 6900 nM.

On to `CCc1nc(-c2ccc3c(c2)CCCC3NC(=O)c2cnn(C)c2)no1` (stereo not drawn) [Compound 515, N-(6-(5-ethyl-1,2,4-oxadiazol-3-yl)-1,2,3,4-tetrahydronaphthalen-1-yl)-1-methyl-1H-pyrazole-4-carboxamide], for which the “CDMF75 IC15” value was 4300 nM and the IC50 came out at 19500 nM.

Consider `CC(=O)O[C@@H](C)c1nc(-c2ccc3c(c2)CC[C@H]3NC(=O)c2cnn(C)c2)no1` [Compound 543, 1-(3-{(1R)-1-[(1-methylpyrazol-4-yl)carbonylamino]indan-5-yl}(1,2,4-oxadiazol-5-yl))(1S)ethyl acetate], for which the “CDMF75 IC15” value stood at 4600 nM and the IC50 was determined as 17300 nM.
